Measured values published in patent US20170055529A1, “BROAD SPECTRUM WEED CONTROL IN FLOODED RICE BY IN-WATER APPLICATION OF AUXIN HERBICIDES” (priority 2015, published 2017).

Tests used:
Assay type in all cases: in vivo
[1] = test system: MOOVA = Monochoria vaginalis (monochoria); assay: Greenhouse in-water herbicidal activity (large pots); conditions: for Percent (%) Visual Injury Ratings - 16 DAA, MOOVA / Percent (%) Visual Injury Ratings - 22 DAA, MOOVA: greenhouse large pots; for pest or weed control at 280 g/ha / pest or weed control at 560 g/ha / pest or weed control at 1120 g/ha: Pontederia vaginalis, 744 h, read-out: Percent (%) Visual Injury Ratings - 31 DAA, MOOVA
Protocol: (§1) Weed seeds or nutlets of the desired test plant species were planted in puddled soil (mud) prepared by mixing shredded topsoil and deionized (DI) water in a 1:1 ratio in a standard cement mixer. […] Osmocote® (17:6:10 N:P:K; 0.5 teaspoon) was added to the bottom of a container. The container is a high-density polyethylene (HDPE) round container (4.163 L (1.1 gallon), 15 cm high×20.55 cm diameter; for treatment purposes, the surface area is calculated as 331 cm^2 with 1 hectare equivalent to 10^8 cm^2). The mud mixture (2,750 mL) was added to the container filling it half full. Stakes were placed horizontally in each container to create separate areas for which to plant each different plant species. Water was added on a regular basis to maintain the paddy flood, and supplemental lighting was provided with overhead metal halide 1000-Watt lamps as necessary.
(§2) Once the plants had reached the proper size (the growth stage of the various species ranged from 2 to 4 leaves), the containers were flooded with city water to a depth of 3 cm submerging the plants 80-100%. The outside of each container was measured and marked at a 3-cm line with a black permanent marker to eliminate water level variability during the trial period. Water was added daily to maintain this water depth. Triclopyr triethylammonium (as Garlon® 3 A, 360 g ae/L); triclopyr butoxyethyl ester (as Garlon® 4, 480 g ae/L); fluroxypyr methylheptyl ester (meptyl or MHE, as Starane® Ultra, 333 g ae/L); fluroxypyr acid (850 grams acid equivalent per kilogram (g ae/kg)); 2,4-dichlorophenoxyacetic acid dimethylammonium (2,4-D DMA, as Weedar® 64 EC, 456 g ae/L); 2,4-dichlorophenoxyacetic acid 2-ethylhexyl ester (2,4-D 2-EHE, as Agri Star®, 456 g ae/L); clopyralid olamine (as Stinger®, 360 g ae/L); and penoxsulam (as Grasp® SC, 240 g ai/L) were used. Each herbicide treatment for each pot was mixed in water (80 mL) and applied directly into the paddy water at rates adjusted to the surface area. The dry formulations were pre-weighed based on the rate of the active ingredient to be applied on a per unit area basis, placed in 30 mL vials, and capped. Granules were spread onto the top of the water in each pot and dispersed throughout the water. Treatments were replicated 3 times.
(§3) The treated plants and control plants were placed in a greenhouse as described above and water was added as needed to maintain a flood depth of 3 cm. […]

[2] = test system: ECHCG = Echinochloa crus-galli (barnyardgrass); assay: as above; conditions: 744 h, read-out: Percent (%) Visual Injury Ratings - 31 DAA, ECHCG
Protocol: as §1, §2, §3

[3] = test system: MOOVA = Monochoria vaginalis (monochoria); assay: Greenhouse in-water herbicidal activity (small pots)
From the text: (§4) Weed seeds of the desired test plant species were planted in puddled soil (mud) prepared by mixing a non-sterilized mineral soil (approximately 50 percent silt, 26 percent clay, and 24 percent sand, with a pH of about 7.6 and an organic matter content of about 2.9 percent) and water at a 1:1 volumetric ratio. The prepared mud was dispensed in 365 milliliter (mL) aliquots into 16-ounce (oz.) non-perforated plastic pots with a surface area of 86.59 square centimeters (cm^2) leaving a headspace of 3 centimeters (cm) in each pot. Mud was allowed to dry overnight prior to planting or transplanting. Rice seeds were planted in Sun Gro® MetroMix® 360 planting mixture, which typically has a pH of 6.0 to 6.8 and an organic matter content of about 30 percent, in plastic plug trays. Seedlings at the second or third leaf stage of growth were transplanted into 840 mL of mud contained in 32-oz. non-perforated plastic pots with a surface area of 86.59 cm^2 four days prior to herbicide application. The paddy was created by filling the headspace of the pots with 2.5 to 3 cm of water. When required to ensure good germination and healthy plants, a fungicide treatment and/or other chemical or physical treatment was applied. The plants were grown for 4-22 days (d) in a greenhouse with an approximate 14-hour (h) photoperiod which was maintained at about 29° C. during the day and 26° C. during the night. Nutrients were added as Osmocote® (19:6:12, Nitrogen:Phosphorus:Potassium (N:P:K)+minor nutrients) at 2 g per 16 oz. pot and 4 g per 32 oz. pot. Water was added on a regular basis to maintain the paddy flood, and supplemental lighting was provided with overhead metal halide 1000-Watt lamps as necessary. The plants were used for testing when they reached the second or third true leaf stage.
(§5) Triclopyr triethylammonium (as Grandstand® R, 359.5 grams acid equivalent per liter (g ae/L)); fluroxypyr methylheptyl ester (meptyl or MHE, as Starane™, 179.8 g ae/L); 2,4-dichlorophenoxyacetic acid dimethylammonium (2,4-D DMA, as Weedar® 64, 455.4 g ae/L); and penoxsulam (as Grasp® SC, 239.7 grams active ingredient per liter (g ai/L) were used. Measured amounts of formulated compounds were placed in individual 120 mL glass vials and were dissolved in 40 mL of an aqueous mixture containing 1.25% volume per volume (v/v) Agri-Dex® crop oil concentrate. Generally, multiple concentrations were tested utilizing the same stock solution. Applications were made by injecting an appropriate amount of the application solution into the aqueous layer of the paddy. Control plants were treated in the same manner with the solvent blank.
(§6) The treated plants and control plants were placed in a greenhouse as described above and water was added as needed to maintain a paddy flood. After approximately 3 weeks the condition of the test plants, compared with that of the untreated plants, was determined visually and scored on a scale of 0 to 100 percent where 0 corresponds to no injury or growth reduction and 100 corresponds to complete kill.

[4] = test system: ECHCG = Echinochloa crus-galli (barnyardgrass); assay: as above
From the text: as §4, §5, §6

[5] = test system: SCPJU = Schoenoplectus juncoides (Japanese bulrush); assay: as above
From the text: as §4, §5, §6

[6] = test system: CYDPI = Cyperus difformis (small-flower flatsedge); assay: as above
From the text: as §4, §5, §6

Row | SMILES | Percent (%) Visual Injury Ratings - 16 DAA, MOOVA ([1]; 35 g ae/ha) [%] | Percent (%) Visual Injury Ratings - 22 DAA, MOOVA ([1]; 35 g ae/ha) [%] | Percent (%) Visual Injury Ratings - 16 DAA, MOOVA ([1]; 70 g ae/ha) [%] | Percent (%) Visual Injury Ratings - 22 DAA, MOOVA ([1]; 70 g ae/ha) [%] | Percent (%) Visual Injury Ratings - 16 DAA, MOOVA ([1]; 140 g ae/ha) [%] | Percent (%) Visual Injury Ratings - 22 DAA, MOOVA ([1]; 140 g ae/ha) [%] | Percent (%) Visual Injury Ratings - 16 DAA, MOOVA ([1]; 280 g ae/ha) [%] | Percent (%) Visual Injury Ratings - 22 DAA, MOOVA ([1]; 280 g ae/ha) [%] | pest or weed control at 280 g/ha [1] [%] | pest or weed control at 560 g/ha [1] [%] | pest or weed control at 1120 g/ha [1] [%] | pest or weed control at 280 g/ha [2] [%] | pest or weed control at 560 g/ha [2] [%] | pest or weed control at 1120 g/ha [2] [%] | Percent (%) Visual Injury Ratings - 20 DAA, MOOVA ([3]; 280 g ae/ha in-water) [%] | Percent (%) Visual Injury Ratings - 20 DAA, MOOVA ([3]; 560 g ae/ha in-water) [%] | Percent (%) Visual Injury Ratings - 20 DAA, MOOVA ([3]; 1120 g ae/ha in-water) [%] | Percent (%) Visual Injury Ratings - 20 DAA, ECHCG ([4]; 280 g ae/ha in-water) [%] | Percent (%) Visual Injury Ratings - 20 DAA, ECHCG ([4]; 560 g ae/ha in-water) [%] | Percent (%) Visual Injury Ratings - 20 DAA, ECHCG ([4]; 1120 g ae/ha in-water) [%] | other results
1 | O=C(O)COc1nc(Cl)c(Cl)cc1Cl [Triclopyr triethanolamine (Garlon ® 3A), triethylammonium 2[(3,5,6-trichloro-2-pyridinyl)oxy]acetate] | 84 | 92 | 89 | 89 | 78 | 82 | 98 | 100 | 100 | 100 | 100 | 65 | 75 | 89 | 95 | 99 | 100 | 40 | 70 | 85 | Percent (%) Visual Injury Ratings - 20 DAA, SCPJU ([5]; 280 g ae/ha in-water): 70%; Percent (%) Visual Injury Ratings - 20 DAA, SCPJU ([5]; 560 g ae/ha in-water): 95%; Percent (%) Visual Injury Ratings - 20 DAA, SCPJU ([5]; 1120 g ae/ha in-water): 100%; Percent (%) Visual Injury Ratings - 20 DAA, CYDPI ([6]; 280 g ae/ha in-water): 100%; Percent (%) Visual Injury Ratings - 20 DAA, CYDPI ([6]; 560 g ae/ha in-water): 100%; Percent (%) Visual Injury Ratings - 20 DAA, CYDPI ([6]; 1120 g ae/ha in-water): 100%
2 | CCCCCCC(C)OC(=O)COc1nc(F)c(Cl)c(N)c1Cl (stereo not drawn) [Fluroxypyr-meptyl (Starane ® Ultra), 1-methylheptyl 2-[(4-amino-3,5-dichloro-6-fluoro-2-pyridinyl)oxy]acetate] | 27 | 0 | 27 | 3 | 13 | 0 | 5 | 15 | 100 | 100 | 100 | 45 | 75 | 99 | 85 | 100 | 100 | 0 | 25 | 99 | Percent (%) Visual Injury Ratings - 20 DAA, SCPJU ([5]; 280 g ae/ha in-water): 60%; Percent (%) Visual Injury Ratings - 20 DAA, SCPJU ([5]; 560 g ae/ha in-water): 90%; Percent (%) Visual Injury Ratings - 20 DAA, SCPJU ([5]; 1120 g ae/ha in-water): 100%; Percent (%) Visual Injury Ratings - 20 DAA, CYDPI ([6]; 280 g ae/ha in-water): 100%; Percent (%) Visual Injury Ratings - 20 DAA, CYDPI ([6]; 560 g ae/ha in-water): 100%; Percent (%) Visual Injury Ratings - 20 DAA, CYDPI ([6]; 1120 g ae/ha in-water): 100%
3 | O=C(O)COc1ccc(Cl)cc1Cl [2,4-D DMA (Weedar ® 64), dimethylammonium 2-(2,4-dichlorophenoxy)acetate] | 98 | 84 | 90 | 72 | 87 | 88 | 89 | 98 | 100 | 100 | 100 | 30 | 38 | 65 | 90 | 100 | 99 | 0 | 20 | 80 | Percent (%) Visual Injury Ratings - 20 DAA, SCPJU ([5]; 280 g ae/ha in-water): 70%; Percent (%) Visual Injury Ratings - 20 DAA, SCPJU ([5]; 560 g ae/ha in-water): 100%; Percent (%) Visual Injury Ratings - 20 DAA, SCPJU ([5]; 1120 g ae/ha in-water): 100%; Percent (%) Visual Injury Ratings - 20 DAA, CYDPI ([6]; 280 g ae/ha in-water): 90%; Percent (%) Visual Injury Ratings - 20 DAA, CYDPI ([6]; 560 g ae/ha in-water): 100%; Percent (%) Visual Injury Ratings - 20 DAA, CYDPI ([6]; 1120 g ae/ha in-water): 100%
